Measurements as given in US10301320B2, “Compositions and methods of modulating 15-PGDH activity” (CASE WESTERN RESERVE UNIVERSITY, priority 2012, dated 2019).

Assays:
[1] = tested on: C57BL/6J mice; test: Survival after whole body irradiation; assay type: in vivo
[2] = tested on: C57BL/6J mice; test: Survival following acetaminophen (Tylenol) overdose; assay type: in vivo; conditions: for Number of mice surviving: Table 10, first dose immediately after Tylenol;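 for all read-outs here: control mice received vehicle only, given once or twice per day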

CCCC[S+]([O-])c1sc2nc(-c3cccs3)cc(-c3ccccc3)c2c1N (stereo not drawn) [SW033291, 2-(butylsulfinyl)-4-phenyl-6-(thiophen-2-yl)thieno[2,3-b]pyridin-3-amine]
Number of mice surviving ([1]; Table 7, 9 Gy, Day 12): 2 | Number of mice surviving ([1]; Table 7, 9 Gy, Day 13): 2 | Number of mice surviving ([1]; Table 7, 9 Gy, Day 14): 1 | Number of mice surviving ([1]; Table 7, 9 Gy, Day 15): 0 | Number of mice surviving ([1]; Table 7, 11 Gy, Day 5): 3 | Number of mice surviving ([1]; Table 7, 11 Gy, Day 6): 3 | Number of mice surviving ([1]; Table 7, 11 Gy, Day 7): 3 | Number of mice surviving ([1]; Table 7, 11 Gy, Day 8): 3 | Number of mice surviving ([1]; Table 7, 11 Gy, Day 9): 2 | Number of mice surviving ([1]; Table 7, 11 Gy, Day 10): 0 | Number of mice surviving ([1]; Table 8, 11 Gy, 1 dose daily for 7 days, Day 5): 3 | Number of mice surviving ([1]; Table 8, 11 Gy, 1 dose daily for 7 days, Day 6): 3 | Number of mice surviving ([1]; Table 8, 11 Gy, 1 dose daily for 7 days, Day 7): 3 | Number of mice surviving ([1]; Table 8, 11 Gy, 1 dose daily for 7 days, Day 8): 2 | Number of mice surviving ([1]; Table 8, 11 Gy, 1 dose daily for 7 days, Day 9): 1 | Number of mice surviving ([1]; Table 8, 11 Gy, 1 dose daily for 7 days, Day 10): 0 | Number of mice surviving ([1]; Table 8, 11 Gy, 1 dose daily, continuous every day, Day 5): 3 | Number of mice surviving ([1]; Table 8, 11 Gy, 1 dose daily, continuous every day, Day 6): 3 | Number of mice surviving ([1]; Table 8, 11 Gy, 1 dose daily, continuous every day, Day 7): 3 | Number of mice surviving ([1]; Table 8, 11 Gy, 1 dose daily, continuous every day, Day 8): 3 | Number of mice surviving ([1]; Table 8, 11 Gy, 1 dose daily, continuous every day, Day 9): 2 | Number of mice surviving ([1]; Table 8, 11 Gy, 1 dose daily, continuous every day, Day 10): 0 | Number of mice surviving ([1]; Table 8, 11 Gy, 7 days, 2 dose daily, Day 5): 3 | Number of mice surviving ([1]; Table 8, 11 Gy, 7 days, 2 dose daily, Day 6): 3 | Number of mice surviving ([1]; Table 8, 11 Gy, 7 days, 2 dose daily, Day 7): 3 | Number of mice surviving ([1]; Table 8, 11 Gy, 7 days, 2 dose daily, Day 8): 3 | Number of mice surviving ([1]; Table 8, 11 Gy, 7 days, 2 dose daily, Day 9): 2 | Number of mice surviving ([1]; Table 8, 11 Gy, 7 days, 2 dose daily, Day 10): 0 | Mice surviving at 120 hours ([2]; 5 mg/kg IP bid beginning 3 hours prior to acetaminophen, 6 doses): 3 of 6 | Mice surviving at 120 hours ([2]; 5 mg/kg IP bid beginning 48 hours prior to acetaminophen, 9 doses): 10 of 12 | Number of mice surviving ([2]; 1 dose daily, 16 hr): 6 | Number of mice surviving ([2]; 1 dose daily, 24 hrs): 6 | Number of mice surviving ([2]; 2 dose daily, 16 hr): 6 | Number of mice surviving ([2]; 2 dose daily, 24 hrs): 6 | Number of mice surviving ([2]; 2 dose daily, 48 hrs): 3 | Number of mice surviving ([2]; 2 dose daily, 64 hrs): 3 | Number of mice surviving ([2]; 2 dose daily, 72 hrs): 3 | Number of mice surviving ([2]; 2 dose daily, 88 hr): 3 | Number of mice surviving ([2]; 2 dose daily, 96 hr): 3 | Number of mice surviving ([2]; 2 dose daily, 112 hr): 3 | Number of mice surviving ([2]; 2 dose daily, 120 hr): 3 | Survival (number of mice) ([2]; Table 11, bid beginning 48 hours prior to acetaminophen, 16 hr): 12 | Survival (number of mice) ([2]; Table 11, bid beginning 48 hours prior to acetaminophen, 24 hrs): 12 | Survival (number of mice) ([2]; Table 11, bid beginning 48 hours prior to acetaminophen, 40 hrs): 11 | Survival (number of mice) ([2]; Table 11, bid beginning 48 hours prior to acetaminophen, 48 hrs): 10 | Survival (number of mice) ([2]; Table 11, bid beginning 48 hours prior to acetaminophen, 64 hrs): 10 | Survival (number of mice) ([2]; Table 11, bid beginning 48 hours prior to acetaminophen, 72 hrs): 10 | Survival (number of mice) ([2]; Table 11, bid beginning 48 hours prior to acetaminophen, 88 hr): 10 | Survival (number of mice) ([2]; Table 11, bid beginning 48 hours prior to acetaminophen, 96 hr): 10 | Survival (number of mice) ([2]; Table 11, bid beginning 48 hours prior to acetaminophen, 112 hr): 10 | Survival (number of mice) ([2]; Table 11, bid beginning 48 hours prior to acetaminophen, 120 hr): 10 | Survival (number of mice) ([2]; Table 12, bid beginning 3 hours prior to acetaminophen, 16 hr): 6 | Survival (number of mice) ([2]; Table 12, bid beginning 3 hours prior to acetaminophen, 24 hrs): 5 | Survival (number of mice) ([2]; Table 12, bid beginning 3 hours prior to acetaminophen, 48 hrs): 3 | Survival (number of mice) ([2]; Table 12, bid beginning 3 hours prior to acetaminophen, 64 hrs): 3 | Survival (number of mice) ([2]; Table 12, bid beginning 3 hours prior to acetaminophen, 72 hrs): 3 | Survival (number of mice) ([2]; Table 12, bid beginning 3 hours prior to acetaminophen, 88 hr): 3 | Survival (number of mice) ([2]; Table 12, bid beginning 3 hours prior to acetaminophen, 96 hr): 3 | Survival (number of mice) ([2]; Table 12, bid beginning 3 hours prior to acetaminophen, 112 hr): 3 | Survival (number of mice) ([2]; Table 12, bid beginning 3 hours prior to acetaminophen, 120 hr): 3
